Assay results reported in patent US9695149B2, “1,2,6-substituted benzimidazoles as flap modulators” (JANSSEN PHARMACEUTICA NV, priority 2013, dated 2017).
Structures can show the parent of a compound that is named as a salt.

Each molecule was assayed on leukotriene pathway in human whole blood (assay: Human whole blood assay (LTB4, A23187-stimulated)). Conditions: Homo sapiens, 0.5 h, human whole blood diluted 1:1 in RPMI, calcium ionophore A23187 7 μg/mL, 30 min.
Assay type: cell-based
Method: (§1) The ability of the compounds of the present invention to treat a FLAP-mediated disease and/or disorder, or associated symptoms or complications thereof, was determined using the following procedures. Binding assay data represent the average value obtained from two different assay plates, with samples run in duplicate on each plate. Human whole blood assay data represent a single replicate on an assay plate using whole blood from at least one healthy donor.
An in vitro cellular assay was performed using human whole blood collected in heparin-containing tubes, which was used to test the ability of compounds to modulate the leukotriene pathway in human whole blood. The blood was diluted 1:1 in RPMI medium, pre-incubated for 15 min at 37° Celsius with test compounds at various concentrations, and then stimulated with calcium ionophore, A23187 (7 μg/mL), for 30 min at 37° Celsius. The samples were then centrifuged and plasma was removed. The plasma was diluted in assay buffer and LTB4 levels were measured using a commercial kit (Enzo Life Sciences). The concentration of each compound that was required for half-maximal inhibition (modulation) of […] (IC50) was calculated by a 4-parameter equation using the program GraphPad Prism (GraphPad software). For analysis, data are imported into 3DX and aggregated as the average of duplicates of the calculated ratios in order to calculate Ki and IC50 values. Numbers in parentheses are the number of runs for the assay.

Compared with Cc1ccc(COc2ccc3nc(C4CCCC[C@H]4C(=O)O)n(Cc4cccc(N5CC(F)(F)C5)c4)c3c2)nc1 (mixture of isomers) [Example 219, racemic cis-2-{1-[3-(3,3-Difluoroazetidin-1-yl)benzyl]-6-[(5-methylpyridin-2-yl)methoxy]-1H-benzimidazol-2-yl}cyclohexanecarboxylic acid], Cc1ccc(COc2ccc3nc(C4CCCC[C@H]4C(=O)O)n(Cc4cccc(N5CCC(F)(F)C5)c4)c3c2)nc1 (mixture of isomers) [Example 220, racemic cis-2-{1-[3-(3,3-Difluoropyrrolidin-1-yl)benzyl]-6-[(5-methylpyridin-2-yl)methoxy]-1H-benzimidazol-2-yl}cyclohexanecarboxylic acid] is 2.5-fold lower in IC50: 1600 nM for the first, 650 nM for the second. The second is the more potent here.

Compared with CCC(CC)(Cc1nc2ccc(OCc3ccn(C)n3)cc2n1Cc1cccc(N2CCCCC2)c1)C(=O)O [Example 212, 2-Ethyl-2-({6-[(1-methyl-1H-pyrazol-3-yl)methoxy]-1-(3-piperidin-1-ylbenzyl)-1H-benzimidazol-2-yl}methyl)butanoic acid], Cc1cnc(COc2ccc3nc(CC(C)(C)C(=O)O)n(Cc4cccc(Br)c4)c3c2)c(F)c1 [Example 191, 3-{1-(3-Bromobenzyl)-6-[(3-fluoro-5-methylpyridin-2-yl)methoxy]-1H-benzimidazol-2-yl}-2,2-dimethylpropanoic acid] is higher in IC50: 1080 nM for the first, greater than 10000 nM for the second. The first is the more potent here.

Cc1ccc(COc2ccc3nc(C4CCCC[C@H]4C(=O)O)n(Cc4cc(Br)ccc4F)c3c2)nc1 (mixture of isomers) [Example 218, racemic trans-2-{1-(5-Bromo-2-fluorobenzyl)-6-[(5-methylpyridin-2-yl)methoxy]-1H-benzimidazol-2-yl}cyclohexanecarboxylic acid] and Cc1ccc(COc2ccc3nc(C4[C@H](C(=O)O)C4(C)C)n(Cc4cc(Br)ccc4F)c3c2)nc1 (mixture of isomers) [Example 227, racemic cis-3-{1-(5-Bromo-2-fluorobenzyl)-6-[(5-methylpyridin-2-yl)methoxy]-1H-benzimidazol-2-yl}-2,2-dimethylcyclopropanecarboxylic acid] are within 1.5-fold of each other in IC50: 4170 nM for the first, 4520 nM for the second.

Same assay, conditions: human whole blood diluted 1:1 in RPMI, calcium ionophore A23187 7 μg/mL, 30 min

In order of rising IC50:
1. Cc1ccc(COc2ccc3nc(C4CCCC[C@H]4C(=O)O)n(Cc4cccc(N5CCCCC5)c4)c3c2)nc1 (mixture of isomers) [Example 223, racemic cis-2-{6-[(5-Methylpyridin-2-yl)methoxy]-1-(3-piperidin-1-ylbenzyl)-1H-benzimidazol-2-yl}cyclohexanecarboxylic acid]  320 nM
2. Cc1ccc(COc2ccc3nc(C4CCCC[C@H]4C(=O)O)n(Cc4cccc(N5CCCCC5)c4)c3c2)nc1 (mixture of isomers) [Example 224, racemic trans-2-{6-[(5-Methylpyridin-2-yl)methoxy]-1-(3-piperidin-1-ylbenzyl)-1H-benzimidazol-2-yl}cyclohexanecarboxylic acid]  2170 nM
3. Cc1ccc(COc2ccc3nc([C@H]4CCCC[C@H]4C(=O)O)n(Cc4cc(Br)ccc4F)c3c2)nc1 (racemic) [Example 229, racemic-cis-2-{1-(5-Bromo-2-fluorobenzyl)-6-[(5-methylpyridin-2-yl)methoxy]-1H-benzimidazol-2-yl}cyclohexanecarboxylic acid]  6640 nM

Each molecule was assayed against human FLAP (Homo sapiens (Human), UniProt P20292) (assay: FLAP binding assay (HTRF format)). Conditions: human FLAP-containing Sf-9 membranes, wild type; average of runs.
Method: as §1
The assay below is used to test the modulatory activity of compounds against FLAP. Human and mouse FLAP-encoding DNA was amplified by polymerase chain reaction and cloned into pFastBac1 (Invitrogen) with a NH2-terminal 6-His tag for expression in Spodoptera frugiperda (Sf-9) cells. FLAP-containing membranes were prepared as was a FITC-labeled FLAP modulator (3-(3-(tert-butylthio)-1-(4-chlorobenzyl)-5-(quinolin-2-ylmethoxy)-1H-indol-2-yl)-2,2-dimethylpropanoic acid). The FLAP binding assay is performed in HTRF format (homogeneous time resolved fluorescence). […] The reaction is allowed to proceed for two hours after which the plate is read on an Envision plate reader in HTRF mode. Data are expressed as a HTRF ratio.
For human FLAP binding assays, data are analyzed with 3DX Explorer software. […] For analysis, data from multiple runs are averaged and each compound may be tested in 2 to 20 runs. Each run comprises two plates and each plate includes duplicates. Data from each plate is averaged and data are imported into 3DX. The data from multiple runs are aggregated as the average of duplicates of the calculated ratios in order to calculate Ki and IC50 values. Numbers in parentheses are the number of runs for the assay.

Chain of human FLAP (P20292 whole entry): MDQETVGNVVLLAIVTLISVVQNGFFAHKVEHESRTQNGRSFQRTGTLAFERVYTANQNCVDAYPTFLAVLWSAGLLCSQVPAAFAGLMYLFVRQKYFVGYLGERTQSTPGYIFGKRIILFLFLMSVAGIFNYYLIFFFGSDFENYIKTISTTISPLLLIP

Cc1ccc(COc2ccc3nc(CC(C)(C)C(=O)O)n(Cc4cc(Br)ccc4F)c3c2)nc1 [Example 225, 3-{1-(5-Bromo-2-fluorobenzyl)-6-[(5-methylpyridin-2-yl)methoxy]-1H-benzimidazol-2-yl}-2,2-dimethylpropanoic acid] and Cc1ccc(COc2ccc3nc(CC(C)(C)C(=O)O)n(Cc4cccc(Br)c4)c3c2)nc1 [Example 232, 3-{1-(3-Bromobenzyl)-6-[(5-methylpyridin-2-yl)methoxy]-1H-benzimidazol-2-yl}-2,2-dimethylpropanoic acid as the trifluoroacetic acid salt] are within 1.5-fold of each other in Ki: roughly 870 nM for the first, roughly 750 nM for the second.

Going from Cc1ccc(COc2ccc3nc(C4CCCC[C@H]4C(=O)O)n(Cc4cccc(N5CC(F)(F)C5)c4)c3c2)nc1 (mixture of isomers) [Example 219, racemic cis-2-{1-[3-(3,3-Difluoroazetidin-1-yl)benzyl]-6-[(5-methylpyridin-2-yl)methoxy]-1H-benzimidazol-2-yl}cyclohexanecarboxylic acid] to Cc1ccc(COc2ccc3nc(C4CCCC[C@H]4C(=O)O)n(Cc4cccc(Br)c4)c3c2)nc1 (mixture of isomers) [Example 217, racemic trans-2-{1-(3-Bromobenzyl)-6-[(5-methylpyridin-2-yl)methoxy]-1H-benzimidazol-2-yl}cyclohexanecarboxylic acid], the Ki rises from 9.1 nM to 60 nM (6.6-fold).

Going from CCC(CC)(Cc1nc2ccc(OCc3ccn(C)n3)cc2n1Cc1cccc(N2CCCCC2)c1)C(=O)O [Example 212, 2-Ethyl-2-({6-[(1-methyl-1H-pyrazol-3-yl)methoxy]-1-(3-piperidin-1-ylbenzyl)-1H-benzimidazol-2-yl}methyl)butanoic acid] to CCC(CC)(Cc1nc2ccc(OCc3ccn(C)n3)cc2n1Cc1ccc(N2CCC(F)(F)C2)cc1)C(=O)O [Example 216, 2-({1-[4-(3,3-Difluoropyrrolidin-1-yl)benzyl]-6-[(1-methyl-1H-pyrazol-3-yl)methoxy]-1H-benzimidazol-2-yl}methyl)-2-ethylbutanoic acid], the Ki rises from 90 nM to roughly 180 nM (2-fold). The first binds more tightly here.

Compared with Cc1cnc(COc2ccc3nc(CC(C)(C)C(=O)O)n(Cc4cccc(Br)c4)c3c2)c(F)c1 [Example 191, 3-{1-(3-Bromobenzyl)-6-[(3-fluoro-5-methylpyridin-2-yl)methoxy]-1H-benzimidazol-2-yl}-2,2-dimethylpropanoic acid], CCC(CC)(Cc1nc2ccc(OCc3ccn(C)n3)cc2n1Cc1cc(Br)ccc1F)C(=O)O [Example 234, 2-({1-(5-Bromo-2-fluorobenzyl)-6-[(1-methyl-1H-pyrazol-3-yl)methoxy]-1H-benzimidazol-2-yl}methyl)-2-ethylbutanoic acid] is higher in Ki: 70 nM for the first, greater than 10000 nM for the second.

Compared with CCC(CC)(Cc1nc2ccc(OCc3ccn(C)n3)cc2n1Cc1ccc(-c2cnc(OC)nc2)cc1F)C(=O)O [Example 214, 2-Ethyl-2-({1-[2-fluoro-4-(2-methoxypyrimidin-5-yl)benzyl]-6-[(1-methyl-1H-pyrazol-3-yl)methoxy]-1H-benzimidazol-2-yl}methyl)butanoic acid], CCC(CC)(Cc1nc2ccc(OCc3ccn(C)n3)cc2n1Cc1cccc(-c2cnc(OC)nc2)c1)C(=O)O [Example 213, 2-Ethyl-2-({1-[3-(2-methoxypyrimidin-5-yl)benzyl]-6-[(1-methyl-1H-pyrazol-3-yl)methoxy]-1H-benzimidazol-2-yl}methyl)butanoic acid] is 2.7-fold lower in Ki: roughly 2500 nM for the first, roughly 940 nM for the second. The second binds more tightly here.

Going from Cc1ccc(COc2ccc3nc(C4[C@H](C(=O)O)C4(C)C)n(Cc4cccc(C)c4)c3c2)nc1 (mixture of isomers) [Example 202, racemic cis-2,2-Dimethyl-3-{1-(3-methylbenzyl)-6-[(5-methylpyridin-2-yl)methoxy]-1H-benzimidazol-2-yl}cyclopropanecarboxylic acid] to Cc1ccc(COc2ccc3nc(C4[C@H](C(=O)O)C4(C)C)n(Cc4ccccc4C)c3c2)nc1 (mixture of isomers) [Example 210, racemic cis-2,2-Dimethyl-3-{1-(2-methylbenzyl)-6-[(5-methylpyridin-2-yl)methoxy]-1H-benzimidazol-2-yl}cyclopropanecarboxylic acid], the Ki rises from roughly 750 nM to roughly 1750 nM (2.3-fold). The first binds more tightly here.

First: Cn1ccc(COc2ccc3nc(C4CCCC[C@H]4C(=O)O)n(Cc4cccc(Br)c4)c3c2)n1 (single isomer, unassigned) [Example 198, (1R*,2S*)-2-{1-(3-Bromobenzyl)-6-[(1-methyl-1H-pyrazol-3-yl)methoxy]-1H-benzimidazol-2-yl}cyclohexanecarboxylic acid]
Second: Cn1ccc(COc2ccc3nc(C4CCCC[C@H]4C(=O)O)n(Cc4cccc(C#N)c4)c3c2)n1 (mixture of isomers) [Example 199, racemic cis-2-{1-(3-Cyanobenzyl)-6-[(1-methyl-1H-pyrazol-3-yl)methoxy]-1H-benzimidazol-2-yl}cyclohexanecarboxylic acid]
The Ki of the first is higher: greater than 10000 nM for the first, roughly 2500 nM for the second. The second binds more tightly here.

For CCC(CC)(Cc1nc2ccc(OCc3ccc(C)cn3)cc2n1Cc1cccc(-c2cnc(OC)nc2)c1)C(=O)O [Example 196, 2-Ethyl-2-({1-[3-(2-methoxypyrimidin-5-yl)benzyl]-6-[(5-methylpyridin-2-yl)methoxy]-1H-benzimidazol-2-yl}methyl)butanoic acid], the Ki was roughly 500 nM.
